Results on twelve compounds are retold here after patent US9890185B2, “Urea derivatives useful as kinase inhibitors” (Respivert Limited, priority 2013, dated 2018).

Assay [1] deals with p38 MAPKα isoform (MAPK14) (Homo sapiens (Human), UniProt Q16539). Description: p38 MAPKα enzyme inhibition (FRET, Z-LYTE, Method 2). Format: biochemical. The method, boiled down: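 Z-LYTE FRET: p38 MAPKα (80 ng/mL for Method 1, 200 ng/mL for Method 2, pre-dilution) preincubated 2 hr RT with compound (4–0.004 μg/mL solutions), activity read via MAPKAP-K2 phosphorylation after 1 hr RT and 1 hr protease development. Coumarin/fluorescein ratio gives phosphorylation; % inhibition versus uninhibited control, IC50 from concentration-response curve.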

A further assay has as its target c-Src (Homo sapiens (Human), UniProt P12931). The assay is described as follows: c-Src enzyme inhibition (FRET, Z-LYTE). It counts as biochemical. Summed up:
(§1)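 Z-LYTE FRET read-out uses protease cleavage of unphosphorylated peptide, and the donor/acceptor ratio reflects phosphorylation. Kinase stocks (c-Src 3000, Syk 2000 ng/mL) were preincubated 2 hr RT with compound stocks of 0.004–4 μg/mL. Peptide and ATP solutions (c-Src 800 μM, Syk 60 μM) were then added for 1 hr. IC50 was taken from concentration-response.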

Another assay addresses Syk (Homo sapiens (Human), UniProt P43405). Description: Syk enzyme inhibition (FRET, Z-LYTE). Format: biochemical. Summed up:
as §1

In the next assay the target is GSK 3α (Homo sapiens (Human), UniProt P49840). The assay is described as follows: GSK 3α enzyme inhibition (FRET, Z-LYTE, Method 2). Format: biochemical. Particulars: read-out: IC50 Values for Enzyme Inhibition, GSK3α. Summed up:
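Recombinant human GSK3α was preincubated with compound (stocks 4, 0.4, 0.04 or 0.004 μg/mL) at RT, 2 hr for Method 1 and 105 min for Method 2. FRET peptide (8 μM stock) and ATP (40 μM stock) were added for 1 hr, then protease development for 1 hr. IC50 was taken from concentration–response curves.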

Assay [2] relates to PBMCs. Description: LPS-induced IL-8 release in PBMC cells (assay b). Format: cell-based, human. As to conditions: Homo sapiens, PBMC; LPS-stimulated PBMCs; read-out: IC50 Values for Inhibition of Cytokine Release, PBMCs IL-8. The method, boiled down: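 Cytokines (TNFα, IL-8) in supernatants were quantified by sandwich ELISA after a 24 h challenge with 1 ng/mL E. coli LPS at 37° C, 5% CO2. Healthy-donor PBMCs had been exposed to compound for 2 h beforehand. IC50 values were fitted from the concentration-response curves.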

Assay [3] has as its system PBMCs. Description: IL-2 release in CD3/CD28 stimulated PBMC cells (assay c). Format: cell-based. Particulars: Homo sapiens, read-out: IC50 Values for Inhibition of Cytokine Release, PBMCs IL-2. The method, boiled down:
(§2)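 Compound added to human PBMCs on anti-CD3/anti-CD28-coated wells (0.3 and 3 μg/mL respectively); 3-day culture. Sandwich ELISA of supernatant IL-2 or IFN gamma gives the read-out, with IC50 derived from the dose-response curve.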

Assay [4] deals with PBMCs. Description: IFN gamma release in CD3/CD28 stimulated PBMC cells (assay c). Particulars: Homo sapiens, read-out: IC50 Values for Inhibition of Cytokine Release, PBMCs IFNγ. It counts as cell-based. Summed up:
as §2

Assay [5] relates to PBMCs. The assay is described as follows: Cell mitosis assay in PBMCs (assay g). As to conditions: Homo sapiens, PBMC, test compound 5 μg/mL. It counts as cell-based. Summed up:
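Metaphase arrest with 0.1 μg/mL demecolcine during the final 2 hr of a 20 hr compound exposure, which follows 48 hr of 2% PHA stimulation of healthy-donor human PBMCs. Mitotic lymphocytes counted by flow cytometry (anti-phospho-histone 3 plus propidium iodide). Inhibition expressed relative to 0.5% DMSO.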

Chain of p38 MAPKα isoform (MAPK14) (Q16539 whole entry, canonical isoform): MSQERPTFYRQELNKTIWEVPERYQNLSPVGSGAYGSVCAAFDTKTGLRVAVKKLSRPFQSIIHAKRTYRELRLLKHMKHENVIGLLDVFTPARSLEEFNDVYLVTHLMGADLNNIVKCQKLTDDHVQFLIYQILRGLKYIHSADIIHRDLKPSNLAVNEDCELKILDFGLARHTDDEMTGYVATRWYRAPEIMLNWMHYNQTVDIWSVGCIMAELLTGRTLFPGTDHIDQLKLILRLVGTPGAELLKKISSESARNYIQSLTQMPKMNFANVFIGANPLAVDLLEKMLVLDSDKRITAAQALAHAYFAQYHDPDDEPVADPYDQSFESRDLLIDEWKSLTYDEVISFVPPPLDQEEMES
Chain of GSK 3α (P49840 whole entry): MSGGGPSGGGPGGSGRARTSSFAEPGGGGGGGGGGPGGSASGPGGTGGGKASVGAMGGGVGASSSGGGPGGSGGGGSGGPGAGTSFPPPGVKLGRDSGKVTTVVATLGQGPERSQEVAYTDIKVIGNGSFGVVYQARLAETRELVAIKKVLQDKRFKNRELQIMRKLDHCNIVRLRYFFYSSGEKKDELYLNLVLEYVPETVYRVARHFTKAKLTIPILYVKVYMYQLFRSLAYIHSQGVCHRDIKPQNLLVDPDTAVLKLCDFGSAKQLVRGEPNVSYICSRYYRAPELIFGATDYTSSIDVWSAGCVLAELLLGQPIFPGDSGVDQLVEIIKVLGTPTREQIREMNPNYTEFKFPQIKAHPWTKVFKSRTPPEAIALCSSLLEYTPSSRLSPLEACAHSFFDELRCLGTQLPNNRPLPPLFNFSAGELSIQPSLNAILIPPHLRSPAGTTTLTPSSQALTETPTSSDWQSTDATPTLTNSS
Chain of c-Src (P12931 whole entry, looked up): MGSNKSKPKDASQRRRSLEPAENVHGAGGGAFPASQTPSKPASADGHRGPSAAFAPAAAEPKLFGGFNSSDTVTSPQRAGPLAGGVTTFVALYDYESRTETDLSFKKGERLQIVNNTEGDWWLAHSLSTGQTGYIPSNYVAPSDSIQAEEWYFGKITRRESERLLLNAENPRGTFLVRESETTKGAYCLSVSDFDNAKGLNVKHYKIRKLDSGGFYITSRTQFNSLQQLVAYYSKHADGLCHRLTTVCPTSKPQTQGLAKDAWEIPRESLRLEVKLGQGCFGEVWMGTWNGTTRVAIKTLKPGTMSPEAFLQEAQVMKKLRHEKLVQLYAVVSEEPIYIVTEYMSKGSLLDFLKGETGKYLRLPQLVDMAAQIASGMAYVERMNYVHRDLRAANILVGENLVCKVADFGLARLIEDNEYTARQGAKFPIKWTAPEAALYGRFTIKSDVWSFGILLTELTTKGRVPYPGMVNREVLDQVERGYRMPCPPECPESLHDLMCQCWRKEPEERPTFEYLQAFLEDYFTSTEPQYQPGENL

Turning to `COc1c(NC(=O)Nc2ccc(Oc3ccnc(Nc4ccccc4)c3)c3ccccc23)cc(C(C)(C)C)cc1[S+](C)[O-]` (racemic) [Example 12, 1-(5-(tert-Butyl)-2-methoxy-3-(methylsulfinyl)phenyl)-3-(4-((2-(phenylamino)pyridin-4-yl)oxy)naphthalen-1-yl)urea], the IC50 in assay [1] was 193 nM; against c-Src it was 201 nM; against Syk it was 656 nM; on GSK 3α, > 9900 nM; in the assay on PBMCs [2], 3.6 nM; with PBMCs [3], 67 nM. For the same compound, in the assay with PBMCs [4], the IC50 worked out at 8.6 nM. The same compound came in with an inhibition at 5 µg/mL with PBMCs [5] of 23.2%.
Turning to `COCCOCCOCCOc1cc(Nc2cc(Oc3ccc(NC(=O)Nc4cc(C(C)(C)C)cc(CS(C)(=O)=O)c4OC)c4ccccc34)ccn2)cc(OC)c1` [15(a), 1-(5-(tert-butyl)-2-methoxy-3-((methylsulfonyl)methyl)phenyl)-3-(4-((2-((3-methoxy-5-(2-(2-(2-methoxyethoxy)ethoxy)ethoxy)phenyl)amino)pyridin-4-yl)oxy)naphthalen-1-yl)urea], the half-inhibitory concentration (IC50) in assay [1] is 177 nM; at c-Src it was 28 nM; at Syk it was 134 nM; at GSK 3α it was > 12200 nM; with PBMCs [2], 3.6 nM; in the assay with PBMCs [3], 43.2 nM. Moreover, in the assay on PBMCs [4], the IC50 was 27.2 nM. For the same compound, in the assay on PBMCs [5], 5 µg/mL produced 56.8% inhibition.
For `COc1c(NC(=O)Nc2ccc(Oc3ccnc(Nc4cccnc4)c3)c3ccccc23)cc(C(C)(C)C)cc1P(C)(C)=O` [15(ad), 1-(5-(tert-butyl)-3-(dimethylphosphoryl)-2-methoxyphenyl)-3-(4-((2-(pyridin-3-ylamino)pyridin-4-yl)oxy)naphthalen-1-yl)urea], the IC50 came to 181 nM in assay [1]; 129 nM on c-Src; 1000 nM at Syk; 1600 nM on GSK 3α; 3.7 nM in the assay with PBMCs [2]; 1110 nM in the assay with PBMCs [3]. The IC50 in the assay on PBMCs [4] stood at 16.2 nM. Also, at 5 µg/mL the inhibition in the assay with PBMCs [5] was 31%.
Turning to `COc1cc(F)cc(Nc2cc(Oc3ccc(NC(=O)Nc4cc(C(C)(C)C)cc(P(C)(C)=O)c4OC)c4ccccc34)ccn2)c1` [15(an), 1-(5-(tert-butyl)-3-(dimethylphosphoryl)-2-methoxyphenyl)-3-(4-((2-((3-fluoro-5-methoxyphenyl)amino)pyridin-4-yl)oxy)naphthalen-1-yl)urea], the half-inhibitory concentration (IC50) in assay [1] was 344 nM; against c-Src, 116 nM; against Syk, 712 nM; at GSK 3α it was > 15200 nM; in the assay with PBMCs [2], 2.7 nM; with PBMCs [3] it was 251 nM. In addition, the IC50 in the assay on PBMCs [4] came out at 6.2 nM. Also, in the assay on PBMCs [5], 5 µg/mL produced 50.3% inhibition.
As to `COc1c(NC(=O)Nc2ccc(Oc3ccnc(Nc4cnn(C)n4)n3)c3ccccc23)cc(C(C)(C)C)cc1P(C)(C)=O` [15(x), 1-(5-(tert-butyl)-3-(dimethylphosphoryl)-2-methoxyphenyl)-3-(4-((2-((2-methyl-2H-1,2,3-triazol-4-yl)amino)pyrimidin-4-yl)oxy)naphthalen-1-yl)urea], the IC50 in assay [1] is 219 nM; against c-Src, 356 nM; against Syk it was > 1630 nM; on GSK 3α, 4660 nM; in the assay with PBMCs [2] it was 6.1 nM; in the assay on PBMCs [3], 624 nM. Besides, the IC50 with PBMCs [4] was 35.9 nM. The same compound displayed an inhibition at 5 µg/mL in the assay on PBMCs [5] of 18.4%.
On to `COc1c(CC(N)=O)cc(C(C)(C)C)cc1NC(=O)Nc1ccc(Oc2ccnc(NCc3ccccn3)c2)c2ccccc12` [38(d), 2-(5-(tert-Butyl)-2-methoxy-3-(3-(4-((2-((pyridin-2-ylmethyl)amino)pyridin-4-yl)oxy)naphthalen-1-yl)ureido)phenyl)acetamide], for which the IC50 in assay [1] is 13 nM; against c-Src, > 1570 nM; against Syk, > 1650 nM; at GSK 3α, 2240 nM; with PBMCs [2] it was 4.5 nM; with PBMCs [3], 1650 nM. For the same compound, in the assay on PBMCs [4], the IC50 is 106 nM. Moreover, in the assay on PBMCs [5], testing at 5 µg/mL gave an inhibition of 28.1%.
As for `COc1c(CC(N)=O)cc(C(C)(C)C)cc1NC(=O)Nc1ccc(Oc2ccnc(Nc3cc(C)cc(C)c3)c2)c2ccccc12` [38(f), 2-(5-(tert-Butyl)-3-(3-(4-((2-((3,5-dimethylphenyl)amino)pyridin-4-yl)oxy)naphthalen-1-yl)ureido)-2-methoxyphenyl)acetamide], the IC50 in assay [1] amounted to 226 nM; at c-Src, 69 nM; at Syk, 837 nM; at GSK 3α, 14800 nM; in the assay with PBMCs [2], 5.5 nM; in the assay with PBMCs [3] it was 75.8 nM. The IC50 in the assay on PBMCs [4] was 16.5 nM. This compound also gave an inhibition at 5 µg/mL in the assay with PBMCs [5] of 37.8%.
On to `CNC(=O)Cc1cc(C(C)(C)C)cc(NC(=O)Nc2ccc(Oc3ccnc(Nc4cccc(OC)c4)c3)c3ccccc23)c1OC` [38(h), 2-(5-(tert-Butyl)-2-methoxy-3-(3-(4-((2-((3-methoxyphenyl)amino)pyridin-4-yl)oxy)naphthalen-1-yl)ureido)phenyl)-N-methylacetamide], for which the IC50 in assay [1] is 123 nM; against c-Src, 181 nM; on Syk it was 1080 nM; on GSK 3α, > 14600 nM; with PBMCs [2], 2.7 nM; with PBMCs [3], 160 nM. In addition, the IC50 in the assay with PBMCs [4] was determined as 17.7 nM. In the assay on PBMCs [5], this compound registered an inhibition at 5 µg/mL of 30.3%.
As for `COc1cc(Nc2cc(Oc3ccc(NC(=O)Nc4cc(C(C)(C)C)cc(CC(N)=O)c4OC)c4ccccc34)ccn2)ccn1` [38(k), 2-(5-(tert-Butyl)-2-methoxy-3-(3-(4-((2-((2-methoxypyridin-4-yl)amino)pyridin-4-yl)oxy)naphthalen-1-yl)ureido)phenyl)acetamide], the IC50 in assay [1] is 152 nM; at c-Src, 166 nM; on Syk, > 1610 nM; on GSK 3α, 2620 nM; in the assay with PBMCs [2], 2.1 nM; in the assay with PBMCs [3], 281 nM. The IC50 in the assay with PBMCs [4] is 14.6 nM. 5 µg/mL produced 70.5% inhibition in the assay on PBMCs [5].
`COc1cc(CO)cc(Nc2cc(Oc3ccc(NC(=O)Nc4cc(C(C)(C)C)cc(CC(N)=O)c4OC)c4ccccc34)ccn2)c1` [38(m), 2-(5-(tert-Butyl)-3-(3-(4-((2-((3-(hydroxymethyl)-5-methoxyphenyl)amino)pyridin-4-yl)oxy)naphthalen-1-yl)ureido)-2-methoxyphenyl)acetamide]: the IC50 in assay [1] was 48 nM; at c-Src, 33 nM; on Syk, 364 nM; at GSK 3α, 3380 nM; in the assay with PBMCs [2], 2 nM; in the assay with PBMCs [3] it was 93.8 nM. Moreover, the IC50 in the assay with PBMCs [4] came out at 7 nM. For the same compound, at 5 µg/mL the inhibition in the assay with PBMCs [5] was 77.4%.
For `COc1cncc(Nc2cc(Oc3ccc(NC(=O)Nc4cc(C(C)(C)C)cc(CC(N)=O)c4OC)c4ccccc34)ccn2)c1` [38(n), 2-(5-(tert-butyl)-2-methoxy-3-(3-(4-((2-((5-methoxypyridin-3-yl)amino)pyridin-4-yl)oxy)naphthalen-1-yl)ureido)phenyl)acetamide], the IC50 in assay [1] is 43 nM; at c-Src, 95 nM; against Syk, > 1610 nM; on GSK 3α, 1200 nM; in the assay with PBMCs [2] it was 1.4 nM; in the assay on PBMCs [3] it was 348 nM. In the assay with PBMCs [4], the IC50 is 14.1 nM. For the same compound, the inhibition at 5 µg/mL in the assay with PBMCs [5] was 66.1%.
On to `COCCOCCOCCOc1cc(Nc2nccc(Oc3ccc(NC(=O)Nc4cc(C(C)(C)C)cc(OCP(C)(C)=O)c4OC)c4ccccc34)n2)cc(OC)c1` [Example 6, 1-(5-(tert-Butyl)-3-((dimethylphosphoryl)methoxy)-2-methoxyphenyl)-3-(4-((2-((3-methoxy-5-(2-(2-(2-methoxyethoxy)ethoxy)ethoxy)phenyl)amino)pyrimidin-4-yl)oxy)naphthalen-1-yl)urea], for which the IC50 in assay [1] was 211 nM; against c-Src, 16 nM; on Syk, 58 nM; on GSK 3α, 1200 nM; with PBMCs [2] it was 1.9 nM; in the assay on PBMCs [4], 15.5 nM. The compound also had an inhibition at 5 µg/mL in the assay on PBMCs [5] of 52.4%.
